SMILES strings stand for the structures. Read-outs that look alike come from different tables or passages of the source. Bounds are passed on as bounds.

In test [1] the test system is C. elegans N2. Kind of test: 96-well liquid-based dose-response (in vivo LD100), wild-type worms. The settings on record: lowest concentration with no viable animals in four of four wells, 6 days after 20 L1 worms deposited. The method, then:
(§1) The 96-well liquid-based chemical screening assay was adapted from an established RNAi screening protocol. Briefly, saturated HB101 Escherichia coli culture was concentrated 2-fold using NGM (nematode growth media) containing 3 mg ml^−1 NaCl, 2.5 mg ml^−1 peptone, 5 μg ml^−1 cholesterol, 1 mM CaCl2, 1 mM MgSO4 and 25 mM KH2PO4. A total of 40 μl of NGM+HB101 was dispensed into each well of a 96-well plate, and chemicals were pinned into the wells using a pinning tool with a 300 nl slot volume (V&P Scientific). Approximately 20 synchronized first larval-stage (L1) worms, in 10 μl of M9 buffer (see ref. [24] for the recipe), were then added to each well. The synchronized L1s were obtained from an embryo preparation (see ref. [24] for the protocol) performed the previous day. The final concentration of dimethyl sulfoxide (DMSO) in the wells was 0.6% v/v. A dissection microscope was used to visualize the wells either 5 or 6 days post worm deposition and any obvious chemical-induced phenotypes were noted.
(§2) The 96-well liquid-based assay was also used for all follow-up dose-response experiments in this work. These experiments were carried out in quadruplicate, and the total number of worms in each well was counted 6 days after worm deposition.

The target of test [2] is T1, Mouse complex II (Mus musculus, UniProt Q9CQA3+Q9CXV1+Q9CZB0).
T1 construct: The livers from three 8–10-week-old C57Bl/6 female mice (Charles River) were removed; tissue Charles River (mice); host or cells: crude mitochondria from liver of C57Bl/6 female mice
In words: Cell-free Complex II functional assay, mouse liver mitochondria. The test is classed as biochemical, M. musculus. Here is the method: The livers from three 8–10-week-old C57Bl/6 female mice (Charles River) were removed, collected in 1.5 ml microcentrifuge tubes, flash frozen in liquid nitrogen and stored at −80 °C until needed. Just before mitochondria isolation, the livers were weighed, placed into a 10-cm petri dish and 10 ml isolation buffer A was added per gram of liver tissue. The tissue was finely minced with a razor blade, transferred to a glass Dounce homogenizer and homogenized by 10 strokes on ice. The homogenate was centrifuged at 1,000g for 10 min at 4 °C. The supernatant was collected and centrifuged at 1,000g for 10 min at 4 °C. The supernatant was again collected and centrifuged at 16,000g for 10 min at 4 °C. The pellet was resuspended in 20 ml of isolation buffer B and centrifuged at 16,000g for 10 min at 4 °C. The pellet was resuspended in 20 ml of isolation buffer B, and 1 ml aliquots of the resuspension were distributed into 20 × 1.5 ml microcentrifuge tubes. The aliquoted resuspensions were centrifuged at 16,000g for 10 min at 4 °C. The supernatant was aspirated, the pellet was flash frozen in liquid nitrogen and stored frozen at −80 °C until needed. The mice used for experimentation were housed and used in accordance with ‘the use and care of experimental animals' guidelines. […]
Mitochondrial pellets were thawed on ice and resuspended in 300 μl of cold isolation buffer B. Using the BCA assay, the protein concentration of the mitochondria suspension was determined and was subsequently diluted to a concentration of 0.2 mg ml^−1 with cold isolation buffer B. Complex II enzymatic assays were carried out in 96-well flat bottom plates. […] Absorbance for each well was measured at 600 nm using a SpectraMax Plus 384-well Microplate Reader, combined with SoftmaxPro software at 30-s intervals over a 35-min time period. Absorbance versus time was plotted for each well and enzyme activity was calculated as the slope of the line defined by the points ranging from 4 to 10 min. Per cent activity was calculated by dividing the enzyme activity of the chemical-treated wells by that of the DMSO control wells. […]

For test [3], the target named is wild-type C. elegans complex II (Caenorhabditis elegans, UniProt O62215+P41956+Q09508+Q09545). In words: biochemical. The test is classed as biochemical.
In test [4] the test system is wact-11-family resistant C. elegans mutants (RP2674, RP2698 and others). In words: 96-well liquid-based dose-response (in vivo LD100), wact-11-family resistant mutants. The settings on record: for Resistance of wact-11-family resistant mutants to compound-induced lethality (in words): liquid dose-response of resistant mutants versus N2; for In vivo LD100: 6 days. Here is the method: as §1, §2

The test system of test [5] is complex II from the parasitic nematode Ascaris suum. The arrangement: method as in PMID 19724139, PMID 23333273. The settings on record: cited from earlier work.
In test [6] the target is C. elegans complex II with SDHC-1(R74K) missense mutation (Caenorhabditis elegans, UniProt O62215+P41956+Q09508+Q09545, R74K). Kind of test: Cell-free Complex II functional assay, mitochondria from wact-11-resistant mutants RP2674 and RP2698. The format is biochemical.
The subject of test [7] is three nematode species, zebrafish and HEK cells. Kind of test: Grouping by phylogenetic bioactivity profile (multi-organism screening pipeline). The settings on record: nematode selectivity and cross-species lethality group. The arrangement: key: Group 1 molecules are lethal to only one or two of the three nematode species tested, but are non-lethal to zebrafish and HEK cells.; Group 2 molecules are lethal to all three nematode species, but are non-lethal to zebrafish and human cells.; Group 3 molecule are lethal to fish or HEK cells, regardless of their nematode bioactivity profile. From the text: To further characterize our 275 C. elegans-lethal molecules, we organized them into three separate groups based on their phylogenetic bioactivity profiles (Fig. 2a). Group 1 contains 102 molecules that are lethal to only one or two of the three nematode species tested, but are non-lethal to zebrafish and HEK cells. Group 2 contains 67 compounds that are lethal to all three nematode species, but are non-lethal to zebrafish and human cells. Group 3 contains the remaining 106 compounds that are lethal to fish or HEK cells, and have varied bioactivity in different nematode species. In particular, the 67 molecules in group 2 represent potentially ideal anthelmintic leads; they have activity across multiple nematode species, and appear not to affect vertebrates.

[8] abbreviates: C. elegans, strain N2, SDHC residue change none, read-out: In vitro Complex II IC50.
[9] abbreviates: read-out: In vitro Complex II IC50, C. elegans, strain RP2674, SDHC R74K.
[10] abbreviates: read-out: In vitro Complex II IC50, C. elegans, strain RP2698, SDHC R74K.
The mark [11] stands for this setting: M. musculus, C57Bl/6 liver mitochondria, read-out: In vitro Complex II IC50.
Where [12] appears, read: C. elegans strain RP2674 (SDHC R74K).
Setting [13] is: C. elegans strain RP2698 (SDHC R74K).

T1 sequence (Q9CZB0 30-169): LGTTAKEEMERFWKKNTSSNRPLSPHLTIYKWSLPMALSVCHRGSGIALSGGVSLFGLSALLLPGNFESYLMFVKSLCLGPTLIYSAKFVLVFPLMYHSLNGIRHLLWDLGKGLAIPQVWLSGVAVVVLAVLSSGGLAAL
T1 sequence (Q9CQA3 31-282): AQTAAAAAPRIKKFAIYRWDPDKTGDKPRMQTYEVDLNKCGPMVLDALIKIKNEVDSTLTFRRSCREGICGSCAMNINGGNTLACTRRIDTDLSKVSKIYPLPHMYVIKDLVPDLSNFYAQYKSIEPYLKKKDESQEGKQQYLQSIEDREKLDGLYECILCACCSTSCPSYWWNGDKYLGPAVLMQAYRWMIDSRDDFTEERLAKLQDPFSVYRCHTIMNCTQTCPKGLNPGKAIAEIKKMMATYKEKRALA
T1 sequence (Q9CXV1 57-159): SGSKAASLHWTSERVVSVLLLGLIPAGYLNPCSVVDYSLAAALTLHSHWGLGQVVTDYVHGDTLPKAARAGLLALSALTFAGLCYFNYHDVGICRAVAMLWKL
T1 sequence (Q8K2B3 43-664 partner): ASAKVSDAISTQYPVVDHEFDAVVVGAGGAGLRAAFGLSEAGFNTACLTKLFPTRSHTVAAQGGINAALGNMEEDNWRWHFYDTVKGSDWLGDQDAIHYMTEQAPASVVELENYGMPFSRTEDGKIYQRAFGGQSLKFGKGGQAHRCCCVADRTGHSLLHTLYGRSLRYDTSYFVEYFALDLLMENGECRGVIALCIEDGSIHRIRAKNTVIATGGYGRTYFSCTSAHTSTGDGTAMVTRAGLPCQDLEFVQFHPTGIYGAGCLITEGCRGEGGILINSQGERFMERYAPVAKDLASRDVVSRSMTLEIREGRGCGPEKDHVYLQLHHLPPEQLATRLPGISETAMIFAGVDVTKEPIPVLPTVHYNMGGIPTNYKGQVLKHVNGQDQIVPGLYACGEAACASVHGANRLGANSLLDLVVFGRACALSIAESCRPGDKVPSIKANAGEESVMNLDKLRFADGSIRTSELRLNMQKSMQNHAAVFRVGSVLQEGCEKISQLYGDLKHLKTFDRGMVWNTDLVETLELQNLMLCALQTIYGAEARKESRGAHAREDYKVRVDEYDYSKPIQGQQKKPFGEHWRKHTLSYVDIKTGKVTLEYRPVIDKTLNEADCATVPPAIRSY
Sequence of C. elegans complex II with SDHC-1(R74K) missense mutation (O62215 whole entry): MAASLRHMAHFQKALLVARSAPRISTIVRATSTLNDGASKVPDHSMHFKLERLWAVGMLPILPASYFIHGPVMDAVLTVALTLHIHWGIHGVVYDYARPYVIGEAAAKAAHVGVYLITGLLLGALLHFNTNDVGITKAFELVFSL
Sequence of C. elegans complex II with SDHC-1(R74K) missense mutation (P41956 whole entry R74K): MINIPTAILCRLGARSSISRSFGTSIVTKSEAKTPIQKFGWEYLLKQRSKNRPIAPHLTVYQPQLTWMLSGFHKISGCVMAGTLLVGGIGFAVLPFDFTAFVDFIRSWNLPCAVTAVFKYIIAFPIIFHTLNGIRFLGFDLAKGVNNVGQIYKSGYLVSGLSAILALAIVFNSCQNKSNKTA
Sequence of C. elegans complex II with SDHC-1(R74K) missense mutation (Q09508 32-646): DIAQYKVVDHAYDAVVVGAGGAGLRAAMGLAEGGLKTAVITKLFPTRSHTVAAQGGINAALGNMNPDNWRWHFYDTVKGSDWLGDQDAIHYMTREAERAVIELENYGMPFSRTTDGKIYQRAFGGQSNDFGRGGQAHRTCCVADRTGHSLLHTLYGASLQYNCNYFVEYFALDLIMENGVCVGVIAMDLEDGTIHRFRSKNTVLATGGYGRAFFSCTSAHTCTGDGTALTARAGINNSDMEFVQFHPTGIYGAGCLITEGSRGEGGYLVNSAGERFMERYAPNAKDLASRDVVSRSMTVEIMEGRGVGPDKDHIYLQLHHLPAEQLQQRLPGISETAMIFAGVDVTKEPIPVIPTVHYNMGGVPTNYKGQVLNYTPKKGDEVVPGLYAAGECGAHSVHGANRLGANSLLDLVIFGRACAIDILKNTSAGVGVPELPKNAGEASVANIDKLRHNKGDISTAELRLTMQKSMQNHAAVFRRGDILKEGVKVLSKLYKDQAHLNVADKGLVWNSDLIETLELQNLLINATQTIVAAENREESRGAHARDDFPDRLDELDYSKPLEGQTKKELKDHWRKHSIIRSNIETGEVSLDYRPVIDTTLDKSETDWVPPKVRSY
Sequence of C. elegans complex II with SDHC-1(R74K) missense mutation (Q09545 whole entry): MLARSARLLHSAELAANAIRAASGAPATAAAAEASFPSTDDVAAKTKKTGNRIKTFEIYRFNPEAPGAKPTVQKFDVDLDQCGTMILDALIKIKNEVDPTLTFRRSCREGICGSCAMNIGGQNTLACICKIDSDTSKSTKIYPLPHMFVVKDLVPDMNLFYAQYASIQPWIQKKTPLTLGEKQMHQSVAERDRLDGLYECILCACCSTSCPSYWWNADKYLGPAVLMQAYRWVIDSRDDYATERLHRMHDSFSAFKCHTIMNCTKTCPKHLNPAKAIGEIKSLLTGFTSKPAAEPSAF
Sequence of wild-type C. elegans complex II (O62215 whole entry): as the sequence (O62215 whole entry) above
Sequence of wild-type C. elegans complex II (Q09545 whole entry): as the sequence (Q09545 whole entry) above
Sequence of wild-type C. elegans complex II (Q09508 32-646): as the sequence (Q09508 32-646) above
Sequence of wild-type C. elegans complex II (P41956 whole entry): as the sequence (P41956 whole entry R74K) above, with K74R counted along it

Regarding `COc1[nH]c(=O)c(C(=O)[C@@H](C)C[C@H](C)[C@@H](Cl)CCl)c(O)c1OC` [Atpenin A5], the “In vivo LD100” value in test [1] is greater than 120 µM. In test [2], this molecule returned an IC50 of 0.593 µM.

In test [3], `O=C(Nc1ccccc1)c1ccccc1I` [Benodanil] had an IC50 of 0.186 µM. In test [1], the “In vivo LD100” value stood at 120 µM. The “Resistance of wact-11-family resistant mutants to compound-induced lethality (in words)” value (“Resistance” for short) in test [4] is listed as “resist the lethality”.

Turning to `O=C(Nc1ccccc1-c1ccc(Cl)cc1)c1cccnc1Cl` [Boscalid], in test [3], inhibition was half-maximal at 0.549 µM (IC50). For the same molecule, the “In vivo LD100” value in test [1] is greater than 120 µM.

In test [3], `CC1=C(C(=O)Nc2ccccc2)SCCO1` [Carboxine] had an IC50 greater than 10 µM. Besides, the “In vivo LD100” value in test [1] was greater than 120 µM.

Take `CC1=NS(=O)(=O)c2cc(Cl)ccc2N1` [Diazoxide]: the IC50 in test [3] is greater than 10 µM. In test [1], the “In vivo LD100” value was greater than 120 µM.

As to `Cc1occc1C(=O)Nc1ccccc1` [Fenfuran], in test [3], the IC50 turned out to be 5.28 µM. Moreover, the “In vivo LD100” value in test [1] is greater than 120 µM.

In test [3], `O=C(NCCc1ncc(C(F)(F)F)cc1Cl)c1ccccc1C(F)(F)F` [Fluopyram] gave an IC50 of 0.0018 µM. For the same molecule, in test [3] (C. elegans N2 complex II IC50), the “Less inhibiting than wact-11 f and wact-11 m” value is roughly 2 fold. Besides, in test [1], the “In vivo LD100” value was determined as 0.469 µM. Also, the “Resistance” value in test [4] is listed as “resist the lethality”.

With `CC(C)Oc1cccc(NC(=O)c2ccccc2C(F)(F)F)c1` [Flutolanil], the “Inhibition of Ascaris suum complex II in vitro (in words)” value in test [5] was “inhibit”. Moreover, the IC50 in test [3] was determined as 0.311 µM. In test [1], the “In vivo LD100” value was greater than 120 µM.

In the case of `C/C=C/CC(C)C(=O)c1c(O)c(OC)c(OC)[nH]c1=O` (stereo not shown) [Harz, harzianopyridone], the IC50 in test [3] (setting [8]) is greater than 10 µM. Further, the “In vivo LD100” value in test [1] was greater than 120 µM.

In the case of `O=C([O-])CC(=O)[O-].[Na+].[Na+]` [Malonate, disodium malonate], the concentration for half-maximal inhibition (IC50) turned out to be 4900 µM in test [3] (setting [8]); 4200 µM in test [6] (C. elegans, strain RP2674, SDHC R74K, read-out: In vitro Complex II IC50); 4200 µM in test [6] (C. elegans, strain RP2698, SDHC R74K, read-out: In vitro Complex II IC50). Further, the “In vivo LD100” value in test [1] is greater than 120 µM.

Turning to `O=C(CC(=O)C(F)(F)F)c1cccs1` [TTFA, thenoyltrifluoroacetone], the IC50 in test [3] (setting [8]) was greater than 10 µM. Also, the “In vivo LD100” value in test [1] was greater than 120 µM.

For `Cc1nc(C(F)(F)F)c(C(=O)Nc2c(Br)cc(OC(F)(F)F)cc2Br)s1` [Thifluzamide], the IC50 in test [3] amounted to 3.82 µM. In addition, in test [1], the “In vivo LD100” value is greater than 120 µM.

With `O=C(NCCc1ccc(Cl)cc1)c1ccccc1C(F)(F)F` [wact-11], the IC50 in test [3] was 0.0074 µM; in test [6], greater than 10 µM; in test [6] (setting [9]), greater than 10 µM; in test [6] (setting [10]) it was greater than 10 µM; in test [2] (setting [11]) it was greater than 10 µM. The figures for the “In vivo LD100” value in test [1], in test [4] (setting [12]) and in test [4] (setting [13]) were 7.5 µM, greater than 120 µM and greater than 120 µM, respectively. Besides, the “Resistance” value in test [4] is “at least some resistance”. Also, in test [7], the “Group # (Bioactivity Group #)” value came out at 2.

Consider `CCc1ccc(OCCNC(=O)c2ccccc2I)cc1` [wact-12], for which the IC50 in test [3] is 0.0057 µM; in test [6] it was greater than 10 µM; in test [6] (setting [9]), greater than 10 µM; in test [6] (setting [10]), greater than 10 µM; in test [2] (setting [11]) it was greater than 10 µM. Further, the “In vivo LD100” value in test [1] was 7.5 µM; in test [4] (setting [12]), greater than 120 µM; in test [4] (setting [13]), greater than 120 µM. In addition, the “Group # (Bioactivity Group #)” value in test [7] was 2.

Turning to `Cc1ccc(SCCNC(=O)c2ccccc2I)cc1` [wact-12c], the IC50 in test [3] (setting [8]) is 0.133 µM. Besides, the “In vivo LD100” value in test [1] was greater than 120 µM.

For the molecule `CCCCCNC(=O)c1ccccc1SC` [wact-127], the “Group # (Bioactivity Group #)” value in test [7] stood at 2.

The record behind these values is PMC4491176, “Caenorhabditis elegans is a useful model for anthelmintic discovery” (Nature Communications, 2015).
